Earlier results on three compounds are cited in patent US12127976B2, “Eye-mountable therapeutic devices, and associated systems and methods” (Twenty Twenty Therapeutics LLC, priority 2018, dated 2024).

Molecules are shown by their SMILES. Structures can show the parent of a compound that is named as a salt.

The conditions of series [1]: after topical administration; formulated as salts.
For series [2] the following is noted: in aqueous humor.

For the compound `CC(C)NCC(O)COc1ccc(CCOCC2CC2)cc1` (stereo not drawn) [betaxolol], the “time at which the maximum effect can be detected” value in series [1] is recorded as “about 2 hours”.

On to `O=C(O)CCC/C=C\C[C@@H]1[C@@H](CC[C@@H](O)CCc2ccccc2)[C@H](O)C[C@@H]1O` [latanoprost acid], for which the estimated half-life in series [2] was approximately 2.8 h.

Take `CC(C)(C)NC[C@H](O)COc1nsnc1N1CCOCC1` [timolol maleate]: in series [1], the “time at which the maximum effect can be detected” value was “about 2 hours”.
